The test system of test [1] is mice with ABPA (allergy to Aspergillus fumigatus). Briefly: Allergic Bronchopulmonary Aspergillosis (ABPA) allergy model in mice. The test is classed as in vivo. As to the method: (§1) Evaluation of the efficacy of thymosin alpha 1 in two experimental models of allergy. A model consists of inducing an allergic state by administering chicken ovalbumin (OVA) in allergising conditions. The other consists of inducing the allergy from environmental allergens, and namely the spores of the fungus Aspergillus fumigatus.
The induction of the allergic pathology due to Aspergillus (called ABPA, Allergic Bronchopulmonary Aspergillosis) and to OVA was carried out as described in table 1 (Montagnoli C, Fallarino F, Gaziano R, Bozza S, Bellocchio S, Zelante T, Kurup W P, Pitzurra L, Puccetti P, Romani L. Immunity and tolerance to Aspergillus involve functionally distinct regulatory T cells and tryptophan catabolism. J. Immunol. 2006, 176:1712-1723). The mice received an intraperitoneal (i.p.) and subcutaneous (s.c.) injection of 5 μg of A. fumigatus culture filter (CCFA) dissolved in an incomplete Freund adjuvant (Sigma) followed by two consecutive intranasal injections (one week apart) of 20 μg CCFA. One week after the last intranasal contact, the mice received 10^7 Aspergillus conidia intratracheally (i.t.) […]. The mice received 10 μg of OVA via i.p./s.c. on day 0, followed by two consecutive intranasal injections (one week apart) of 10 μg of OVA (chicken OVA grade VI; Sigma-Aldrich) together with 1 mg of Al(OH)3 (Alum Inject; Pierce, Rockford, Ill.) as adjuvant dissolved in a sterile saline solution. The mice were analysed for inflammation and allergy parameters a week later. For the histological analysis, sections (from 3 to 4 μm) of tissues immersed in paraffin were coloured with periodical Schiff acid (PAS) to evaluate the general morphology. The lung sections coloured with PAS were examined at 50, 200 and 400 enlargements to assess the “Globet” type cells typical of the allergy.
The differential total and total lung cell counts were carried out by colouring the lung of allergic mice with May-Grünwald reagents (Giemsa Sigma) before the analysis.
(§2) The collagen levels in the lungs were determined as described (Montagnoli C, Fallarino F, Gaziano R, Bozza S, Bellocchio S, Zelante T, Kurup WP, Pitzurra L, Puccetti P, Romani L. Immunity and tolerance to Aspergillus involve functionally distinct regulatory T cells and tryptophan catabolism. J. Immunol. 2006, 176:1712-1723). The concentrations of hydroxyproline were calculated by means of a standard hydroxyproline curve (zero to 100 μg/ml).
IgE determination in the serum. Total IgE in the serum samples was determined by enzyme-linked immunosorbent assay (Montagnoli C, Fallarino F, Gaziano R, Bozza S, Bellocchio S, Zelante T, Kurup WP, Ptzurra L, Puccetti P, Romani L. Immunity and tolerance to Aspergillus involve functionally distinct regulatory T cells and tryptophan catabolism. J. Immunol. 2006, 176:1712-1723 in the serum samples was measured by enzyme-linked immunosorbent assay).
Treatment with thymosin alpha 1. Tα1 (purchased from Sigma, St. Louis, Mo., USA; product no. T3410; molecular formula C129H215N33O55) and the scrambled peptide were supplied as sterile dried powders. The powders were reconstituted in sterile water (endotoxin levels were <0.03 pg/ml, by means of standard Limulus lysate assay). Tα1 was administered at a dosage of 50 and 200 microgrammes/kg i.p. according to the design reported in tables 1 and 2, both in the ABPA model and in the allergy from OVA. Mice controls received the scrambled peptide. In selected experiments, the mice were treated for comparison with a known agent that could improve the allergic symptomatology: oligodeoxynucleotide, containing non-methylated CpG (CpG) sequences.

The subject of test [2] is mice with allergy from OVA. The test is described as follows: Allergy from OVA (chicken ovalbumin) model in mice. It counts as in vivo. The conditions noted are these: FIG. 1B. The method, then:
as §1
The induction of the allergic pathology due to Aspergillus (called ABPA, Allergic Bronchopulmonary Aspergillosis) and to OVA was carried out as described in table 1 (Montagnoli C, Fallarino F, Gaziano R, Bozza S, Bellocchio S, Zelante T, Kurup W P, Pitzurra L, Puccetti P, Romani L. Immunity and tolerance to Aspergillus involve functionally distinct regulatory T cells and tryptophan catabolism. J. Immunol. 2006, 176:1712-1723). The mice received an intraperitoneal (i.p.) and subcutaneous (s.c.) injection of 5 μg of A. fumigatus culture filter (CCFA) dissolved in an incomplete Freund adjuvant (Sigma) followed by two consecutive intranasal injections (one week apart) of 20 μg CCFA. […] The mice were analysed for inflammation and allergy parameters a week later. […]
as §2
IgE determination in the serum. Total IgE in the serum samples was determined by enzyme-linked immunosorbent assay (Montagnoli C, Fallarino F, Gaziano R, Bozza S, Bellocchio S, Zelante T, Kurup WP, Ptzurra L, Puccetti P, Romani L. Immunity and tolerance to Aspergillus involve functionally distinct regulatory T cells and tryptophan catabolism. J. Immunol. 2006, 176:1712-1723 in the serum samples was measured by enzyme-linked immunosorbent assay). […]

The mark [3] stands for this setting: FIG. 1A, Tα1 200 microgrammes i.p., both prophylaxis and therapy, vs control mice.
Setting [4] is: Tα1 200 microgrammes i.p., both prophylaxis and therapy, vs control mice.

Results on one substance are retold here after patent US20090270594A1, “USE OF THYMOSIN ALPHA 1 FOR THE PREPARATION OF A MEDICAMENT FOR THE PREVENTION AND TREATMENT OF ALLERGIES” (SIGMA-TAU INDUSTRIE FARMACEUTICHE, priority 2006, published 2009).

Where no end group is shown, it is not given here.

With “thymosin alpha 1 (Ac-SDAAVDTSSEITTKDLKEKKEVVEEAEN; ends and bridges not checked; UniProt P06454 2-29, looked up) [Tα1, thymic peptide found in nature; purchased from Sigma, product no; T3410]”, in test [1] (setting [3]), the IgE antibodies entry is reported as “drastic reduction” and the “local production of hydroxyproline” value is listed as “drastic reduction”. Further, the “reduction in allergic inflammatory parameters (hydroxyproline, IgE) at lower dosages” value in test [1] (FIG. 1A, lower dosages (50 microgrammes/kg i.p.)) was “not at lower dosages”. The “efficacy in reducing the allergic inflammation parameters, Tα1 compared with CpG” value in test [1] (FIG. 2, both in prophylaxis and therapy) is recorded as “comparable efficacy”. Further, in test [1] (FIG. 3), the “recruitment of monocytes/macrophages (pulmonary)” value is listed as “did not have any appreciable effects” and the “recruitment of neutrophils (pulmonary)” value is on record as “did not have any appreciable effects”. Further, the “recruitment of eosinophils (pulmonary)” value in test [1] (FIG. 3, both in prophylaxis and in therapy) is listed as “drastic reduction”. In addition, the “hyperplasia of submucose glandular (Globet) cells in pulmonary sections” value in test [1] (FIG. 4, histology (PAS)) is reported as “decreased hyperplasia”. Moreover, the “inflammatory infiltrate in pulmonary sections” value in test [1] (FIG. 4, histology (PAS), prophylactic treatment) is recorded as “considerably reduced”. Also, in test [2] (setting [4]), the IgE antibodies entry is “drastic reduction” and the “local production of hydroxyproline” value is “drastic reduction”. In addition, in test [2] (lower dosages (50 microgrammes/kg i.p.)), the “reduction in allergic inflammatory parameters (hydroxyproline, IgE) at lower dosages” value is “not at lower dosages”.
